Tested on: panel of 50 SH2 domains
Assay: SPOT peptide array probed with each of 50 GST-SH2 domains
Type: binding
Settings: SPOT192 peptide array; for SH2 Domains >3X: list of GST-SH2 domains with spot intensity >3X array mean (array-positive); for 2X < SH2 Domains < 3X: list of GST-SH2 domains with spot intensity between 2X and 3X array mean (indeterminate range)
Excerpt: The use of addressable peptide arrays is a reproducible and semi-quantitative approach that has been extensively validated for studying protein interactions with peptide ligands. To investigate connections between SH2 domain proteins and their putative phosphorylated docking sites on cell surface receptors, we developed addressable arrays consisting of 192 phosphotyrosine peptides. This peptide set was assembled using 71 phosphotyrosine peptide motifs corresponding to all of the cytoplasmic tyrosine residues within the FGF receptors (FGFR1-4), insulin receptor (InsR) and IGF-1 receptor (IGF-1R) (Figure 1A). Activation of these receptors results in the phosphorylation of associated scaffold proteins, and so 75 phosphotyrosine peptides corresponding to a comprehensive list of tyrosine residues within insulin receptor substrates (IRS-1 and IRS-2) and fibroblast receptor substrates (FRS-2 and FRS-3) were included. In addition, 33 phosphotyrosine peptides were incorporated from the downstream signaling proteins PLC-γ1, p130Cas (BCAR1) and p62DOK1. […] These control peptides provide a reference and establish the empirical cut-off for designated binding interactions (Table 1). No discrimination was made against peptides on the basis of reported phosphorylation state in order to examine a diverse and unbiased set of motifs. The resulting set of 192 phosphotyrosine peptides and their corresponding position in the proteins of origin is noted in Additional file 1: Table S1. Addressable arrays were synthesized as membrane-bound 11-mer peptides using the SPOT synthesis technique. While the majority of SH2 domains recognize residues C-terminal to the phosphotyrosine in their cognate peptide ligands, additional contacts between SH2 domains and residues N-terminal to the phosphotyrosine are observed for the SH2 domain of Sh2d1a (SAP) and cannot be ruled out in other cases. Peptides were synthesized with six flanking residues C-terminal to the phosphotyrosine and four residues N-terminal to the phosphotyrosine.
To assess the potential network of SH2 domain interactions we selected 50 SH2 domains representing 28 of the 38 families of SH2 domains (Figure 1B) all of which we have previously shown can be expressed and purified. These include a number of extensively studied SH2 domains (Src, Grb2, PLCγ), as well as a number of less studied SH2 domains from proteins such as Shd, She, Shf, Slnk (Sh2d6), Sh2d1a (SAP), Sh2d1b (Eat-2), and Brdg1. To address potential variability in specificity within families we employed all members from the SHB, CRK, GRB2, SRC and ABL families (families are indicated with complete Capitalized lettering).
SH2 domains were arrayed as GST fusion proteins and detected using anti-GST primary antibodies and near-infrared labeled secondary antibodies. In an effort to present a dataset with minimal false positives, we chose an empirical cutoff based on the array average across all peptide spots to classify interactions (Figure 1A). In cases where the intensity of the signal for an individual SH2-domain binding event exceeded the mean intensity of all the peptides on the membrane by three-fold were scored as “array positives” [22]. Non-binding was judged in cases where the intensity of a spot was less than the mean intensity of all spots on the membrane and these were scored as “array negatives”. Peptides with signal intensities between 1X and 3X mean were scored as “indeterminate” and ascribed as neither array positive binding interactions nor array-negative non-binders. […] This signature may be indicative of promiscuity differences between phosphopeptides or there may be a subset of peptides which interact in a nonspecific fashion with either the GST fusion tag or one of the antibodies used for detection, resulting in false positives. […]

Substance | SH2 Domains >3X | 2X < SH2 Domains < 3X
EGSApYEEVPTS [G20] | BRK, FGR, LYN, NCK1, SH2D1B, SHC1, YES | BLK, FER, FYN, HCK, GRB7, LCK
TNELpYMMMRDS [E17] |  | PI3K1_C
KEEGpYELPYNP [H21] | ABL1, ABL2, BLK, BRK, FGR, FYN, HCK, ITK, LCK, LYN, NCK1, PI3K1_N, RASA1_N, RASA1_C, RIN1, SH2D1B, SHC1, SHIP1, SRC, VAV1, YES | FER, GRB7
SNPEpYLSASDV [A19] | VAV1 | 
ARLEpYYENEKK [B19] | GRB7, MIST, SH3BP2 | SH2D2A, SHF, SHD
RQLNpYIQVDLE [G09] | BCAR3, BMX, BRDG1, DAPP1, ITK, MIST, PLCG2_C, PTPN11_N, RASA1_N, SHB, SHF, SHD, SHE, SYK_C, VAV1, ZAP70_N | PTPN11_C, Sh2b
AACDpYESCATA [A01] | PI3K1_C | CRKL, HCK
GLDEpYDEVPMP [A05] | NCK1 | BRK, FER
NGILpYLEDPVN [G22] | Sh2b, SHB, SHF, SYK_C | 
GGSPpYPGIPVE [F01] | ZAP70_N | 
VSEEpYLDLRLT [F18] | BMX, RASA1_N, SHB, SHD | 
SRGDpYMTMQMS [C19] | PI3K1_C | 
SLDEpYGSSPGD [D09] | SLNK | BLK, LCK
DLSApYASISFQ [C23] | PTPN11_N, PTPN11_C | SH2D1B, SHD, SHE
ELSNpYICMGGK [C01] | PI3K1_C | 
AKTGpYENFIHL [B10] | GADS, GRB2, GRB7, MIST, PI3K1_N, SH2D2A, SH3BP2, TENC1 | BRDG1, BRK
PQDIpYDVPPVR [H11] | CRK, CRKL, NCK1, SHIP1, ZAP70_N | FGR, FYN, LCK, LYN
EYRKpYGGAKLN [B07] | BCAR3, BMX, BRDG1, BRK, FER, PLCG2_N, TENC1 | ITK, MIST, PTPN11_C, RIN1, SHF, SHD, SYK_C

Substance | SH2 Domains >3X | 2X < SH2 Domains < 3X
SIEEpYTEMMPA [C03] | BRK, SHC1 | BLK, FER, FGR, LCK, PI3K1_C
RKVGpYLRKPKS [B18] | BCAR3, BMX, BRDG1, BRK, FER, PI3K1_N, RIN1, TENC1 | MATK, MIST, PLCG2_N, PTPN11_C, SHB, SHF, SHD
PVFFpYVQAKTG [B09] | BRDG1, MIST, Sh2b, SYK_C | BCAR3, RASA1_C, SHF, TENC1
LEYCpYNPSHNP [E10] | GRB7 | 
AYHPpYPEDYGD [D16] | BMX | MATK, SLNK
MDGGpYLDQPDN [B04] | FGR, FYN, LYN, SH2D1B, SHC1, SHIP1, SRC, YES | BLK, HCK, LCK
HHIDpYYKKTSN [F16] | BCAR3, BMX, BRDG1, FER, PLCG2_N, PTPN11_C, SHF, TENC1 | DAPP1, ITK, MATK, MIST, PI3K1_N, PLCG2_C, PTPN11_N, RIN1, SH3BP2, SHB, SHD, SHIP1
LGPLpYASSNPE [A18] | ZAP70_N | 
WYPHpYFVLTSS [G24] | ABL2, CRK, CRKL, ITK, MATK, MIST, PI3K1_C, PTPN11_C, SH2D1B, SHD, SHIP1, ZAP70_N | BCAR3, GRB7, SHC1
LVALpYTRDEHF [B21] |  | SH2D2A
GYPRpYPSFGDA [G01] |  | ZAP70_N
NLREpYLQARRP [E08] | BRDG1, DAPP1, MIST, PLCG2_N, PTPN11_C, Sh2b, SHB, SHF, SHD, SYK_C, TENC1 | BCAR3, BMX, PTPN11_N, SHE
DPMPpYEPALPQ [F05] | FYN, LYN, SHIP1, YES | FGR, LCK, SH2D1B, SHC1
SDAYpYGPEDPH [C11] |  | BLK, BMX, DAPP1, FYN, GRB7, LCK, LYN, PLCG2_C, RASA1_C, SH2D1B, SHC1
YGALpYEGRNPG [H02] |  | SH3BP2, ZAP70_N
NKLVpYENINGL [G04] | GADS, GRAP, GRB2, GRB7, SH2D2A, SH3BP2 | ABL1
WMEDpYDYVHLQ [H12] | BCAR3, BMX, BRK, CRK, CRKL, DAPP1, FER, GRB7, ITK, MATK, NCK1, PI3K1_N, PLCG2_N, RASA1_N, RASA1_C, RIN1, SH3BP2, TENC1 | ABL1, BLK, FYN, HCK, LCK, LYN, PLCG2_C, SH2D1B, SHB, SHC1, SHIP1, SRC

Source: PMC3514216, “SRC Homology 2 Domain Binding Sites in Insulin, IGF-1 and FGF receptor mediated signaling networks reveal an extensive potential interactome” (Cell Communication and Signaling : CCS, 2012)
